Patent US12286435B2, “Compound having benzo seven-membered ring structure, preparation method therefor, and use thereof” (BIONNA (BEIJING) MEDICAL TECHNOLOGY CO., LTD., priority 2019, dated 2025)
pIC50, pKi: −log10 of the molar value. Values joined by “and” are separate entries in the source; they are usually repeats but may differ in a detail not shown here. Identical values can stand only once.

Assays:
[1] = target: BRD4 BD2 protein (Homo sapiens (Human), UniProt O60885); test: Fluorescence polarization binding affinity (Ki) with BRD4 BD2 protein; set-up: BRD4 BD2 Ki: reference not given here; conditions: fluorescence polarization; Ki calculated from IC50
[2] = system: multiple myeloma MM.1S cell line; test: Cell viability (CCK-8), multiple myeloma MM.1S; type: cell-based; conditions: Homo sapiens, MM1.S, 96 h, MM.1S cells, 4 days, CCK-8, 50% inhibition of cell growth
Procedure: 3. Determination of cell viability of the compound
The sample to be tested was dissolved with 100% dimethyl sulfoxide to prepare a 20 mM stock solution of the compound, which was diluted with 100% dimethyl sulfoxide to the highest compound concentration required for the experiment (2.5 mM).
First, 145 uL of a complete cell culture medium was added to wells B1-G1 of a 96-well flat-bottomed tansparent cell culture plate, and 100 uL of the complete medium was added to wells B2-G12, respectively. Then, 5 uL of the 2.5 mM solution of the compound was added to wells B1-D1 and E1-G1 respectively, and then diluted gradiently by 3-folds to B12-D12 and E12-G12 in sequence. Finally, 50 uL of the solution of the cells to be tested was added to each well, with about 3000-5000 cells per well, and a total volume of 150 uL per well.
In the experiment, in addition to the tested compound, two other control groups were set up: 1) a control group adding the cells and the complete medium, but without adding the compound; 2) a control group adding the complete medium only, without adding the cells and the compound. The 96-well plate was placed in a 37° C. cell culture incubator containing 5% carbon dioxide for 4 days, added with 15 uL of a CCK-8 reagent per well, and then incubated at 37° C. for 2-4 hours. The 96-well plate was read on a TECAN microplate reader, and the absorbance value at 450 nm wavelength was taken.
The effect of different concentrations of the compound on cell viability was calculated by the following equation: [absorption value of the experimental group−absorption value of pure cell culture medium without the cells or the compound]/[absorption value of the control group with the tumor cells but no testing compound−absorption value of pure cell culture medium without the cell or the compound]×100%.
The above data were precessed by software, and the IC50 value was the concentration of the compound corresponding to the 50% inhibition rate of cell growth.
Based on the above test method of the compound on cell viability, a variety of […] cancer cell lines were tested, using multiple myeloma MM.1S, breast cancer MDA-MB-231 and leukemia MV4-11 cell lines as exemples. Using this test method, the IC50 values of partial compounds in the examples of the present invention measured in multiple myeloma MM.1S, breast cancer MDA-MB-231 cell lines and leukemia MV4-11 cell lines were shown in Table 2.

[3] = target: BRD4 BD1 protein (Homo sapiens (Human), UniProt O60885); test: Fluorescence polarization binding affinity (Ki) with BRD4 BD1 protein; conditions: fluorescence polarization; Ki calculated from IC50

| SMILES | pKi [1] | pIC50 [2] | pKi [3] | BRD4 BD2 Ki [1] |
| --- | --- | --- | --- | --- |
| CC(=O)N1CC=C(c2ccc3c(c2)C(Nc2cccc(Cl)c2)CCn2nnc(C)c2-3)CC1 (stereo not drawn) [BH29, 1-(4-(7-((3-chlorophenyl)amino)-1-methyl-6,7-dihydro-5H-benzo[c][1,2,3]triazolo[1,5-a]azepin-9-yl)-3,6-dihydropyridin-1(2H)-yl)ethan-1-one] | 8.90 | 9.00 | 7.40 | – |
| Cc1nnn2c1-c1ccc(-c3cnn(C)c3)cc1C(Nc1cccc(CN(C)C)c1)CC2 (stereo not drawn) [LC31, N-(3-((dimethylamino)methyl)phenyl)-1-methyl-9-(1-methyl-1H-pyrazol-4-yl)-6,7-dihydro-5H-benzo[c][1,2,3]triazolo[1,5-a]azepin-7-amine] | 7.68 | 7.55 | 7.03 | – |
| Cc1nnn2c1-c1ccc(-c3cccnc3)cc1C(Nc1ccc(Cl)cc1)CC2 (stereo not drawn) [RA193, N-(4-chlorophenyl)-1-methyl-9-(pyridin-3-yl)-6,7-dihydro-5H-benzo[c][1,2,3]triazolo[1,5-a]azepin-7-amine] | 7.95 | 7.30 | 7.28 | – |
| Cc1nnn2c1-c1ccc(-c3ccc(N)nc3)cc1C(Nc1ccc(Cl)cc1)CC2 (stereo not drawn) [RB03, 9-(6-aminopyridin-3-yl)-N-(4-chlorophenyl)-1-methyl-6,7-dihydro-5H-benzo[c][1,2,3]triazolo[1,5-a]azepin-7-amine] | 7.78 | 7.77 | 7.43 | – |
| Cc1nnn2c1-c1ccc(-c3cnn(C)c3)cc1C(Nc1cccc(OCCO)c1)CC2 (stereo not drawn) [LB77, 2-(3-((1-methyl-9-(1-methyl-1H-pyrazol-4-yl)-6,7-dihydro-5H-benzo[c][1,2,3]triazolo[1,5-a]azepin-7-yl)amino)phenoxy)ethanol] | 8.22 | 7.14 | 7.00 | – |
| CC(=O)N1CC=C(c2ccc3c(c2)C(Nc2ccc(Cl)cc2)CCn2nnc(C)c2-3)CC1 (stereo not drawn) [LD19, 1-(4-(7-((4-chlorophenyl)amino)-1-methyl-6,7-dihydro-5H-benzo[c][1,2,3]triazolo[1,5-a]azepin-9-yl)-3,6-dihydropyridin-1(2H)-yl)ethan-1-one] | 8.01 | > 9.00 | 7.41 | – |
| Cc1nnn2c1-c1ccc(-c3cnn(C)c3)cc1C(Nc1ccc(CO)cc1)CC2 (stereo not drawn) [LB35, (4-((1-methyl-9-(1-methyl-1H-pyrazol-4-yl)-6,7-dihydro-5H-benzo[c][1,2,3]triazolo[1,5-a]azepin-7-yl)amino)phenyl)methanol] | 7.62 | 7.44 | 6.21 | – |
| Cc1nnn2c1-c1ccc(-c3cnn(C)c3)cc1C(Nc1ccc(CC#N)cc1)CC2 (stereo not drawn) [LC03, 2-(4-((1-methyl-9-(1-methyl-1H-pyrazol-4-yl)-6,7-dihydro-5H-benzo[c][1,2,3]triazolo[1,5-a]azepin-7-yl)amino)phenyl)acetonitrile] | 8.88 and 8.39 | 7.23 | 7.48 | – |
| Cc1noc2c1-c1ccc(-c3cnn(C)c3)cc1C(Nc1ccc(Cl)cc1)CC2 (stereo not drawn) [LA55, N-(4-chlorophenyl)-1-methyl-8-(1-methyl-1H-pyrazol-4-yl)-5,6-dihydro-4H-benzo[6,7]cyclohepta[1,2-d]isoxazol-6-amine] | 7.59 | 7.58 | 7.27 | – |
| Cc1nnn2c1-c1ccc(-c3cnn(C)c3)cc1C(Oc1ccc(Cl)cc1)CC2 (stereo not drawn) [BE128, 7-(4-chlorophenoxy)-1-methyl-9-(1-methyl-1H-pyrazol-4-yl)-6,7-dihydro-5H-benzo[c][1,2,3]triazolo[1,5-a]azepine] | 7.77 | 6.16 | 6.75 | – |
| Cc1nnn2c1-c1ccc(-c3cnn(C)c3)cc1C(Nc1ccc3cccnc3c1)CC2 (stereo not drawn) [LB89, 1-methyl-9-(1-methyl-1H-pyrazol-4-yl)-N-(quinolin-7-yl)-6,7-dihydro-5H-benzo[c][1,2,3]triazolo[1,5-a] azepin-7-amine] | 7.30 | 6.84 | 6.37 | – |
| Cc1nnn2c1-c1ccc(-c3cnn(C)c3)cc1C(Nc1ccc(C(N)=O)cc1)CC2 (stereo not drawn) [LB32, 4-((1-methyl-9-(1-methyl-1H-pyrazol-4-yl)-6,7-dihydro-5H-benzo[c][1,2,3]triazolo[1,5-a]azepin-7-yl)amino)benzamide] | 7.36 | 6.22 | 6.63 | – |
| CNC(=O)c1cccc(NC2CCn3nnc(C)c3-c3ccc(-c4cnn(C)c4)cc32)c1 (stereo not drawn) [LB181] | 7.84 | 6.78 | 6.88 | – |
| Cc1nnn2c1-c1ccc(-c3cccc4[nH]cnc34)cc1C(Nc1ccc(Cl)cc1)CC2 (stereo not drawn) [RB42, 9-(1H-benzo[d]imidazol-4-yl)-N-(4-chlorophenyl)-1-methyl-6,7-dihydro-5H-benzo[c][1,2,3]triazolo[1,5-a]azepin-7-amine] | 7.59 | 6.49 | 7.28 | – |
| Cc1nnn2c1-c1ccc(-c3cnn(C)c3)cc1C(Nc1cccc(N(C)C)c1)CC2 (stereo not drawn) [LB152, N^1,N^1-dimethyl-N^3-(1-methyl-9-(1-methyl-1H-pyrazol-4-yl)-6,7-dihydro-5H-benzo[c][1,2,3]triazolo[1,5-a]azepin-7-yl)benzene-1,3-diamine] | 7.78 | 7.58 | 7.12 | – |
| Cc1nnn2c1-c1ccc(-c3cnn(C)c3)cc1C(Nc1ccc3[nH]ccc3c1)CC2 (stereo not drawn) [LB98, N-(1H-indo1-5-yl)-1-methyl-9-(1-methyl-1H-pyrazol-4-yl)-6,7-dihydro-5H-benzo[c][1,2,3]triazolo[1,5-a]azepin-7-amine] | 8.04 | 7.67 | 7.28 | – |
| Cc1nnn2c1-c1ccc(-c3cnn(C)c3)cc1C(Nc1ccc(Cl)cc1)CC2C (stereo not drawn) [BE25, N-(4-chlorophenyl)-1,5-dimethyl-9-(1-methyl-1H-pyrazol-4-yl)-6,7-dihydro-5H-benzo[c][1,2,3]triazolo[1,5-a]azepin-7-amine] | 8.03 | 8.46 | 7.68 | – |
| Cc1nnn2c1-c1ccc(-c3cnn(C)c3)cc1C(Nc1ccc(C(=O)O)cc1)CC2 (stereo not drawn) [LB20, 4-((1-methyl-9-(1-methyl-1H-pyrazol-4-yl)-6,7-dihydro-5H-benzo[c][1,2,3]triazolo[1,5-a]azepin-7-yl)amino)benzoic acid] | 7.08 | 5.61 | 5.76 | – |
| Cc1nnn2c1-c1ccc(-c3cnn(C)c3)cc1C(Nc1ccccc1CC#N)CC2 (stereo not drawn) [LC09, 2-(2-((1-methyl-9-(1-methyl-1H-pyrazol-4-yl)-6,7-dihydro-5H-benzo[c][1,2,3]triazolo[1,5-a]azepin-7-yl)amino)phenyl)acetonitrile] | – | 7.41 | 7.81 | <Kd |
| COc1ccc2c(c1)C(Nc1ccc(F)cc1)CCc1onc(C)c1-2 (stereo not drawn) [BB189, N-(4-fluorophenyl)-8-methoxy-1-methyl-5,6-dihydro-4H-benzo[6,7]cyclohepta[1,2-d]isoxazol-6-amine] | 7.04 | 6.64 | 6.76 | – |
| Cc1nnn2c1-c1ccc(C3=CCNCC3)cc1C(Nc1cccc(OCCO)c1)CC2 (stereo not drawn) [LC56, 2-(3-((1-methyl-9-(1,2,3,6-tetrahydropyridin-4-yl)-6,7-dihydro-5H-benzo[c][1,2,3]triazolo[1,5-a]azepin-7-yl)amino)phenoxy)ethan-1-ol 2,2,2-trifluoroacetate] | 7.15 | 5.54 | 5.82 | – |
| Cc1nnn2c1-c1ccc(-c3cnn(C)c3)cc1C(Nc1cccc(C#N)c1)CC2 (stereo not drawn) [LC07, 3-((1-methyl-9-(1-methyl-1H-pyrazol-4-yl)-6,7-dihydro-5H-benzo[c][1,2,3]triazolo[1,5-a]azepin-7-yl)amino)benzonitrile] | 8.08 and 7.73 | 6.78 | 6.87 | – |
| Cc1nnn2c1-c1ccc(-c3cnn(C)c3)cc1C(Nc1cc(C3CC3)nn1C)CC2 (stereo not drawn) [BE130, N-(3-cyclopropyl-1-methyl-1H-pyrazol-5-yl)-1-methyl-9-(1-methyl-1H-pyrazol-4-yl)-6,7-dihydro-5H-benzo[c][1,2,3]triazolo[1,5-a]azepin-7-amine] | 7.52 | 6.77 | 6.86 | – |
| Cc1nnn2c1-c1ccc(-c3ccc4c(c3)OCO4)cc1C(Nc1ccc(Cl)cc1)CC2 (stereo not drawn) [RB11, 9-(benzo[d][1,3]dioxo1-5-yl)-N-(4-chlorophenyl)-1-methyl-6,7-dihydro-5H-benzo[c][1,2,3]triazolo[1,5-a]azepin-7-amine] | 7.89 | 6.49 | 7.05 | – |
